Test results: PubChem BioAssay AID1963439 (Molecular Pharmacology Branch, DTP, NCI, 2024)

Test system: NCI-H196 complex spheroids with HUVEC/MSC, growth % T/C
Assay: Anticancer human tumor NCI-H196 cell line growth inhibition [Asc];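 further: spheroids exposed to compound for 7 days before measurement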;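 on viability, T/C: 100% = DMSO vehicle control wells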
Conditions: for IC50: curve of first compound; for viability, T/C: stronger effect = lower value
Method: Multicellular complex tumor spheroid response to apoptosis pathway targeting inhibitors Alrizomadlin, Pelcitoclax, and Dasminapant in combination with a variety of drugs and investigational agents in selected tumor cell lines
The MDM2 inhibitor alrizomadlin, the Bcl-2/Bcl-xL inhibitor pelcitoclax, and the IAPs inhibitor dasminapant were evaluated both individually and in combination with standard of care and investigational anticancer small molecules within a complex spheroid model of solid tumors. . Complex spheroids include a stromal component modeled by human endothelial cells (HUVEC) and fibroblasts modeled by human mesenchymal stem cells (MSCs). The concentration ranges selected for each drug and investigational agent were based upon clinically achievable concentrations if the clinical Cmax of the agent was known.
Compounds. The drugs and investigational agents: alrizomadlin (APG-115; NSC831270), pelcitoclax (APG-1252; NSC835773), dasminapant (APG-1387;NSC834197), TAK-243 (NSC785004), copanlisib (NSC809693), olaparib (NSC753686), talazoparib (NSC767125), cobimetinib (NSC 768068), eltanexor (KPT-8602, NSC 794443), abemaciclib (NSC 768073), sotorasib (NSC818433), adagrasib (NSC 831453), MRTX-1133 (NSC 836407), Iadademestat (ORY1001, NSC 806812), and RMC-4630 (NSC839698), were obtained from the NCI Developmental Therapeutics Program Chemical Repository. The FDA-approved anticancer drug set is available from the Developmental Therapeutics Program at https://dtp.cancer.gov/organization/dscb/obtaining/available plates.htm. […] The stock solutions were prepared in dimethyl sulfoxide (DMSO, Sigma-Aldrich, St. Louis, MO, cat. D2650) at 800-fold the tested concentration and stored at -70 degrees C prior to their use. All drugs and investigational agents were tested over a range starting from a high concentration at or near the clinical Cmax and decreasing in half-log increments. If the clinical Cmax for an agent had not been determined, the highest concentration tested was 10 microM.
The patient-derived cancer (PDC) cell lines include five colon adenocarcinomas: 186277-243-T-J2-PDC, 616215-338-R-J1-PDC, 439559-082-T-J2-PDC, 463943-066-T-J2-PDC, and 519858-162-T-J1-PDC; three pancreatic carcinomas: 323965-272-R-J2-PDC, 521955-158-R6-J3-PDC, and 521955-158-R2-J5-PDC; two uterine sarcomas: 327498-152-R-J2-PDC and 993429-296-R-J1-PDC; two rhabdomyosarcomas: 755483-174-R-J1-PDC and 772245-204-R-J1-PDC; two soft tissue sarcomas: 126254-015-R-J1-PDC and 494315-158-R-J1-PDC; two malignant fibrous histiocytomas: 317291-083-R-J1-PDC and 596521-263-R-J1-PDC; two breast carcinomas: 171881-019-R-J1-PDC and 885512-296-R-J2-PDC; and one ovarian carcinoma: 6556581-035-R-J-PDC were obtained from the NCI PDMR, (https://pdmr.cancer.gov). The established cell lines HSSY-2 synovial sarcoma (RRID:CVCL 8719), SYO-1 synovial sarcoma (RRID:CVCL_7146), MPNST malignant peripheral neural sheath tumor were obtained from the Sloan Kettering Institute. The following established cell lines were purchased from the American Type Culture Collection (ATCC, Manassas, VA), Sor the received from the NCI repository:, PANC-1 pancreatic carcinoma (CRL-1469, RRID:CVCL_0480), OVCAR-5 ovarian carcinoma (RRID:CVCL_1628), OVCAR-8 ovarian carcinoma (RRID:CVCL_1629), , MCF-7 breast carcinoma (CRL-12584, RRID:CVCL_0031), MDA-MB-231 breast carcinoma (CRL-12532, RRID:CVCL_0062), NCI-H1876 small cell lung carcinoma (CRL-5902, RRID:CVCL_1503), NCI-H510A small cell lung carcinoma (HTB-184, RRID:CVCL_1565), NCI-H1417 (CRL-5869, RRID:CVCL_1469), and NCI-H196 small cell lung carcinoma (CRL-5823, RRID:CVCL_1509). Dr. Peter Houghton (Greehey Children's Cancer Research Institute, University of Texas Health Science Center, San Antonio, TX) provided Rh-18 rhabdomyosarcoma (RRID:CVCL_1659). Pooled donor human umbilical vein endothelial cells (HUVEC, Lonza, cat. CC-2519) and human mesenchymal stem cells (hMSC, Lonza, cat. PT-2501) were purchased from Lonza (Walkersville, MD).
Cell Culture. […]

[1] = second compound 0.03 µM, first compound 0.0316 µM
[2] = second compound 0.03 µM, first compound 0.1 µM
[3] = second compound 0.03 µM, first compound 0.316 µM
[4] = second compound 0.03 µM, first compound 1 µM
[5] = second compound 0.03 µM, first compound 3.16 µM
[6] = second compound 0.03 µM, first compound 10 µM
[7] = second compound 0.0949 µM, first compound 0.0316 µM
[8] = second compound 0.0949 µM, first compound 0.1 µM
[9] = second compound 0.0949 µM, first compound 0.316 µM
[10] = second compound 0.0949 µM, first compound 1 µM
[11] = second compound 0.0949 µM, first compound 3.16 µM
[12] = second compound 0.0949 µM, first compound 10 µM
[13] = second compound 0.3 µM, first compound 0.0316 µM
[14] = second compound 0.3 µM, first compound 0.1 µM
[15] = second compound 0.3 µM, first compound 0.316 µM
[16] = second compound 0.3 µM, first compound 1 µM
[17] = second compound 0.3 µM, first compound 3.16 µM
[18] = second compound 0.3 µM, first compound 10 µM
[19] = second compound 0.949 µM, first compound 0.0316 µM
[20] = second compound 0.949 µM, first compound 0.1 µM
[21] = second compound 0.949 µM, first compound 0.316 µM
[22] = second compound 0.949 µM, first compound 1 µM
[23] = second compound 0.949 µM, first compound 3.16 µM
[24] = second compound 0.949 µM, first compound 10 µM
[25] = second compound 3 µM, first compound 0.0316 µM
[26] = second compound 3 µM, first compound 0.1 µM
[27] = second compound 3 µM, first compound 0.316 µM
[28] = second compound 3 µM, first compound 1 µM
[29] = second compound 3 µM, first compound 3.16 µM
[30] = second compound 3 µM, first compound 10 µM

## C#Cc1c(F)ccc2cc(O)cc(-c3ncc4c(N5CC6CCC(C5)N6)nc(OCC56CCCN5CC(F)C6)nc4c3F)c12 (stereo not given) + CCN1C(C(=O)NC23CCC(C(=O)O)(CC2)CC3)C(c2cccc(Cl)c2F)C2(C(=O)Nc3cc(Cl)ccc32)C12CCCCC2
Second compound 0.03 µM
  IC50: > 10 µM
Second compound 0.0949 µM
  IC50: > 10 µM
Second compound 0.3 µM
  IC50: > 10 µM
Second compound 0.949 µM
  IC50: > 10 µM
Second compound 3 µM
  IC50: > 10 µM
[1]
  viability, T/C: 96.4%
[2]
  viability, T/C: 102%
[3]
  viability, T/C: 97.6%
[4]
  viability, T/C: 101%
[5]
  viability, T/C: 88.7%
[6]
  viability, T/C: 104%
[7]
  viability, T/C: 102%
[8]
  viability, T/C: 110%
[9]
  viability, T/C: 106%
[10]
  viability, T/C: 95.8%
[11]
  viability, T/C: 110%
[12]
  viability, T/C: 97.4%
[13]
  viability, T/C: 109%
[14]
  viability, T/C: 108%
[15]
  viability, T/C: 117%
[16]
  viability, T/C: 96.9%
[17]
  viability, T/C: 97.5%
[18]
  viability, T/C: 99%
[19]
  viability, T/C: 123%
[20]
  viability, T/C: 123%
[21]
  viability, T/C: 115%
[22]
  viability, T/C: 93%
[23]
  viability, T/C: 115%
[24]
  viability, T/C: 103%
[25]
  viability, T/C: 118%
[26]
  viability, T/C: 123%
[27]
  viability, T/C: 129%
[28]
  viability, T/C: 114%
[29]
  viability, T/C: 108%
[30]
  viability, T/C: 114%

## O=C(c1cc(Cc2n[nH]c(=O)c3ccccc23)ccc1F)N1CCN(C(=O)C2CC2)CC1 + CCN1C(C(=O)NC23CCC(C(=O)O)(CC2)CC3)C(c2cccc(Cl)c2F)C2(C(=O)Nc3cc(Cl)ccc32)C12CCCCC2
Second compound 0.03 µM
  IC50: > 10 µM
Second compound 0.0949 µM
  IC50: > 10 µM
Second compound 0.3 µM
  IC50: > 10 µM
Second compound 0.949 µM
  IC50: > 10 µM
Second compound 3 µM
  IC50: > 10 µM
[1]
  viability, T/C: 102%
[2]
  viability, T/C: 116%
[3]
  viability, T/C: 95.9%
[4]
  viability, T/C: 100%
[5]
  viability, T/C: 104%
[6]
  viability, T/C: 97.9%
[7]
  viability, T/C: 108%
[8]
  viability, T/C: 105%
[9]
  viability, T/C: 110%
[10]
  viability, T/C: 100%
[11]
  viability, T/C: 102%
[12]
  viability, T/C: 104%
[13]
  viability, T/C: 106%
[14]
  viability, T/C: 107%
[15]
  viability, T/C: 123%
[16]
  viability, T/C: 116%
[17]
  viability, T/C: 107%
[18]
  viability, T/C: 100%
[19]
  viability, T/C: 120%
[20]
  viability, T/C: 124%
[21]
  viability, T/C: 121%
[22]
  viability, T/C: 121%
[23]
  viability, T/C: 121%
[24]
  viability, T/C: 105%
[25]
  viability, T/C: 116%
[26]
  viability, T/C: 120%
[27]
  viability, T/C: 108%
[28]
  viability, T/C: 110%
[29]
  viability, T/C: 128%
[30]
  viability, T/C: 110%

## NC(=O)C(=Cn1cnc(-c2cc(C(F)(F)F)cc(C(F)(F)F)c2)n1)c1cncnc1 + CCN1C(C(=O)NC23CCC(C(=O)O)(CC2)CC3)C(c2cccc(Cl)c2F)C2(C(=O)Nc3cc(Cl)ccc32)C12CCCCC2
Second compound 0.03 µM
  IC50: 0.0221 µM
Second compound 0.0949 µM
  IC50: 0.0243 µM
Second compound 0.3 µM
  IC50: 0.0262 µM
Second compound 0.949 µM
  IC50: 0.0264 µM
Second compound 3 µM
  IC50: 0.0268 µM
Second compound 0.03 µM, first compound 0.000949 µM
  viability, T/C: 110%
Second compound 0.03 µM, first compound 0.003 µM
  viability, T/C: 99.3%
Second compound 0.03 µM, first compound 0.00949 µM
  viability, T/C: 79.1%
Second compound 0.03 µM, first compound 0.03 µM
  viability, T/C: 41.6%
Second compound 0.03 µM, first compound 0.0949 µM
  viability, T/C: 7.35%
Second compound 0.03 µM, first compound 0.3 µM
  viability, T/C: 4.55%
Second compound 0.0949 µM, first compound 0.000949 µM
  viability, T/C: 100%
Second compound 0.0949 µM, first compound 0.003 µM
  viability, T/C: 103%
Second compound 0.0949 µM, first compound 0.00949 µM
  viability, T/C: 85.2%
Second compound 0.0949 µM, first compound 0.03 µM
  viability, T/C: 42.6%
Second compound 0.0949 µM, first compound 0.0949 µM
  viability, T/C: 8.3%
Second compound 0.0949 µM, first compound 0.3 µM
  viability, T/C: 3.76%
Second compound 0.3 µM, first compound 0.000949 µM
  viability, T/C: 108%
Second compound 0.3 µM, first compound 0.003 µM
  viability, T/C: 101%
Second compound 0.3 µM, first compound 0.00949 µM
  viability, T/C: 90.4%
Second compound 0.3 µM, first compound 0.03 µM
  viability, T/C: 46.1%
Second compound 0.3 µM, first compound 0.0949 µM
  viability, T/C: 4.78%
Second compound 0.3 µM, first compound 0.3 µM
  viability, T/C: 5.31%
Second compound 0.949 µM, first compound 0.000949 µM
  viability, T/C: 116%
Second compound 0.949 µM, first compound 0.003 µM
  viability, T/C: 109%
Second compound 0.949 µM, first compound 0.00949 µM
  viability, T/C: 93.1%
Second compound 0.949 µM, first compound 0.03 µM
  viability, T/C: 46.6%
Second compound 0.949 µM, first compound 0.0949 µM
  viability, T/C: 4.71%
Second compound 0.949 µM, first compound 0.3 µM
  viability, T/C: 5.06%
Second compound 3 µM, first compound 0.000949 µM
  viability, T/C: 124%
Second compound 3 µM, first compound 0.003 µM
  viability, T/C: 119%
Second compound 3 µM, first compound 0.00949 µM
  viability, T/C: 106%
Second compound 3 µM, first compound 0.03 µM
  viability, T/C: 44.6%
Second compound 3 µM, first compound 0.0949 µM
  viability, T/C: 3.65%
Second compound 3 µM, first compound 0.3 µM
  viability, T/C: 4.05%
